pIC50: −log10 of the molar value. Activity calls are given as the source filed them. The calls are words filed in the database; no cut-off is given here.
Target: not listed separately
Experiment: Inhibition of guinea pig protein-glutamine gamma-glutamyltransferase 2 assessed as fluorescent intensity of monodansyl cadaverine
Set-up: species or system Cavia porcellus

Row | SMILES | pIC50
1 | COC(=O)C(CSSCC(NCCC(=O)c1ccc(Br)cc1)C(=O)OC)NCCC(=O)c1ccc(Br)cc1 (stereo not drawn) | 4.96
2 | O=C(CCNCCSSCCNCCC(=O)c1cccc(Br)n1)c1cccc(Br)n1 | 5.59
3 | COC(=O)C(CSSCC(NCCC(=O)c1cc2ccccc2s1)C(=O)OC)NCCC(=O)c1cc2ccccc2s1 (stereo not drawn) | 6.05
4 | O=C(CCNCCSSCCNCCC(=O)c1ccco1)c1ccco1 | 6.38
5 | COC(=O)C(CSSCC(NCCC(=O)c1sccc1Br)C(=O)OC)NCCC(=O)c1sccc1Br (stereo not drawn) | 5.24
6 | COC(=O)C(CCSSCCC(NCCC(=O)c1cccs1)C(=O)OC)NCCC(=O)c1cccs1 (stereo not drawn) | 5.44
7 | O=C(CCNCCSSCCNCCC(=O)c1ccsc1)c1ccsc1 | 5.80
8 | COC(=O)C(CSSCC(NCCC(=O)c1ccncc1)C(=O)OC)NCCC(=O)c1ccncc1 (stereo not drawn) | 5.47
9 | COC(=O)C(CSSCC(NCCC(=O)c1ccc(C#N)cc1)C(=O)OC)NCCC(=O)c1ccc(C#N)cc1 (stereo not drawn) | 5.89
10 | O=C(CCNCCSSCCNCCC(=O)c1ccccc1)c1ccccc1 | 5.66
11 | O=C(CCNCCSSCCNCCC(=O)c1cccs1)c1cccs1 | 6.29
12 | O=C(CCNCCSSCCNCCC(=O)c1ccc(I)cc1)c1ccc(I)cc1 | 6.05
13 | COC(=O)C(CSSCC(NCCC(=O)c1ncc(C)s1)C(=O)OC)NCCC(=O)c1ncc(C)s1 (stereo not drawn) | 5.40
14 | COC(=O)C(CSSCC(NCCC(=O)c1ccc2ccccc2c1)C(=O)OC)NCCC(=O)c1ccc2ccccc2c1 (stereo not drawn) | 4.72
15 | COC(=O)C(CCSSCCC(NCCC(=O)c1ccc(Br)cc1)C(=O)OC)NCCC(=O)c1ccc(Br)cc1 (stereo not drawn) | 5.80
16 | COC(=O)C(CSSCC(NCCC(=O)c1nccs1)C(=O)OC)NCCC(=O)c1nccs1 (stereo not drawn) | 5.01
17 | COC(=O)C(CSSCC(NCCC(=O)c1ncccn1)C(=O)OC)NCCC(=O)c1ncccn1 (stereo not drawn) | 5.26
18 | COC(=O)C(CSSCC(NCCC(=O)c1ccco1)C(=O)OC)NCCC(=O)c1ccco1 (stereo not drawn) | 5.54
19 | COC(=O)C(CSSCC(NCCC(=O)c1cccc(Br)n1)C(=O)OC)NCCC(=O)c1cccc(Br)n1 (stereo not drawn) | 5.96
20 | O=C(CCNCCSSCCNCCC(=O)c1ccc2ccccc2c1)c1ccc2ccccc2c1 | 5.70
21 | N#Cc1ccc(C(=O)CCNCCSSCCNCCC(=O)c2ccc(C#N)cc2)cc1 | 5.96
22 | O=C(CCNCCSSCCNCCC(=O)c1cccnc1)c1cccnc1 | 5.85

Second part, the molecule after the results:

Row | pIC50 | SMILES
23 | 6.92 | O=C(CCNCCSSCCNCCC(=O)c1ccc(Br)s1)c1ccc(Br)s1
24 | 6.92 | COC(=O)C(CCSSCCC(NCCC(=O)c1ccc(Cl)s1)C(=O)OC)NCCC(=O)c1ccc(Cl)s1 (stereo not drawn)
25 | 6.72 | COC(=O)C(CSSCC(NCCC(=O)c1ccc(Cl)s1)C(=O)OC)NCCC(=O)c1ccc(Cl)s1 (stereo not drawn)
26 | 6.74 | COC(=O)C(CSSCC(NCCC(=O)c1ccc(Br)s1)C(=O)OC)NCCC(=O)c1ccc(Br)s1 (stereo not drawn)
27 | 6.92 | O=C(CCNCCSSCCNCCC(=O)c1ccc(Cl)s1)c1ccc(Cl)s1
28 | 6.48 | COC(=O)C(CCSSCCC(NCCC(=O)c1sccc1Br)C(=O)OC)NCCC(=O)c1sccc1Br (stereo not drawn)
29 | 7.00 | COC(=O)C(CCSSCCC(NCCC(=O)c1ccc(I)s1)C(=O)OC)NCCC(=O)c1ccc(I)s1 (stereo not drawn)
30 | 6.92 | COC(=O)C(CCSSCCC(NCCC(=O)c1cc2ccccc2s1)C(=O)OC)NCCC(=O)c1cc2ccccc2s1 (stereo not drawn)
31 | 6.77 | O=C(CCNCCSSCCNCCC(=O)c1ccc(I)s1)c1ccc(I)s1
32 | 6.92 | O=C(CCNCCSSCCNCCC(=O)c1ccc(Br)cc1)c1ccc(Br)cc1
33 | 7.00 | COC(=O)C(CCSSCCC(NCCC(=O)c1ccc(Br)s1)C(=O)OC)NCCC(=O)c1ccc(Br)s1 (stereo not drawn)
34 | 6.40 | COC(=O)C(CSSCC(NCCC(=O)c1cccs1)C(=O)OC)NCCC(=O)c1cccs1 (stereo not drawn)
35 | 6.62 | COC(=O)C(CSSCC(NCCC(=O)c1ccc(I)s1)C(=O)OC)NCCC(=O)c1ccc(I)s1 (stereo not drawn)
36 | 6.77 | O=C(CCNCCSSCCNCCC(=O)c1cc2ccccc2s1)c1cc2ccccc2s1
37 | 6.68 | O=C(CCNCCSSCCNCCC(=O)c1sccc1Br)c1sccc1Br

Species on record: Cavia porcellus
Experiment: Inhibition of guinea pig protein-glutamine gamma-glutamyltransferase 2-mediated amyloid-beta oligomerization at 0.1 to 10 uM

Row | inhibition | SMILES
38 | Active | NNC(=O)CSc1nc2sc3c(c2c(=O)n1-c1cccc(F)c1)C(c1ccccc1)CCC3 (stereo not drawn)

— ChEMBL document CHEMBL1641584 (Bioorg Med Chem Lett, 2011)
